What was measured:
[1] = biological target: P2Y1; conditions: Figure 1, reported antagonist; cited from earlier work
[2] = biological target: T1, t-P2Y1 (Meleagris gallopavo, UniProt P49652); assay: Calcium mobilization assay, t-P2Y1 transfected 1321N1 astrocytoma cells; type: cell-based; conditions: 100 μM ADP
T1 construct: host or cells: human 1321N1 astrocytoma cells, stably transfected
Method: (§1) Dr. Gary A. Weisman provided human-1321N1 astrocytoma cells that had been transfected by the tP2Y1R, hP2Y2R, hP2Y4R, and rP2Y6R and untransfected 1321N1 astrocytoma cells (University of Missouri Mo., Bond Life Science Center). The DMEM Dulbecco’s Modified Eagle -Medium (Gibco) was added in flasks to cultivate the cell line. 10% of the Fetal bovine serum was also added to the media together with 500 μg/mL of Geneticin (G418) and 1% of the Pen/Strep. The cells in T-75 flask were then cultured and incubated in a CO2 incubator which was maintained at (5%) and 37°C temperature until 90% of the cells were confluent. Throughout the experiment, cells were periodically checked for the confluency and strictly watched for the microbial contamination.
(§2) The FLUOstar Galaxy (BMG LABTECH GmbH, Ortenberg, Germany) microplate reader with two injectors was used to measure the Ca^2+ fluorescence of synthetic compounds. For this assay, 1321N1 transfected cells (t-P2Y1, h-P2Y2, h-P2Y4, and r-P2Y6) were cultured in T-75 flask. When cells reached the confluency of 80%–90%, they were washed with PBS and then Trypsin was added. After trypsinization for 3 min, 20,000 cells/well were allowed to seed in a black wall and 96 well clear bottom plate which was coated with Poly-D-Lysine and allowed to incubate for 24 h in 37°C, 5% CO2 incubator. After incubation, 200 μL culture media was changed with 100 μL HBSS containing Fura-2 AM which is calcium chelating dye and allowed the plate to incubate for 45 min in dark at temp of 37°C in incubator which is maintained with carbon dioxide (5% CO2). After incubation for 45 min, synthesized molecules were added to HBSS washed cells in each well of 96 well plate and re-incubated for 30 min at 37°C. In next step, injection of the endogenous ligand such as ADP through the injector was followed by excitation and emission measurements of Fura-2 AM at 380/520 nm and 340/520. Final volume of the assay per well 200 μL. IC50 values were computed for the compounds displaying more than 50% of activity using Prism 5.0 software (Graph Pad., Inc., San Diego. California, United States) by using analysis i.e., nonlinear regression ([Kassack et al., 2002]; [Ullmann et al., 2005]).

[3] = biological target: T2, h-P2Y2 (Homo sapiens, UniProt P41231); assay: Calcium mobilization assay, h-P2Y2 transfected 1321N1 astrocytoma cells; type: cell-based; conditions: 500 μM ATP
T2 construct: host or cells: human 1321N1 astrocytoma cells, stably transfected
T2 sequence (P41231 whole entry): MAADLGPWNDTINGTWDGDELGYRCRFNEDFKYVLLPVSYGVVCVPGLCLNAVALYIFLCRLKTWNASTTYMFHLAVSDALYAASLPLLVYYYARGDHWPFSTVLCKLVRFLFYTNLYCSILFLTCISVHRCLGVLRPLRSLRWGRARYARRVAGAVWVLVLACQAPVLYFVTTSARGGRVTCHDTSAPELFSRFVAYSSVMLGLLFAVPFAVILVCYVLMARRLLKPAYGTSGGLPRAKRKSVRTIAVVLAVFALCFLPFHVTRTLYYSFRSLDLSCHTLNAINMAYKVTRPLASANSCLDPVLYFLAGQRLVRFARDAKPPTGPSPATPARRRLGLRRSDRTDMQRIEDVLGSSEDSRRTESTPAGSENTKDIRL
Method: as §1, §2

[4] = biological target: T3, h-P2Y4 (Homo sapiens, UniProt P51582); assay: Calcium mobilization assay, h-P2Y4 transfected 1321N1 astrocytoma cells; type: cell-based; conditions: final conc of 100 μM; 500 μM UTP
T3 construct: host or cells: human 1321N1 astrocytoma cells, stably transfected
T3 sequence (P51582 whole entry): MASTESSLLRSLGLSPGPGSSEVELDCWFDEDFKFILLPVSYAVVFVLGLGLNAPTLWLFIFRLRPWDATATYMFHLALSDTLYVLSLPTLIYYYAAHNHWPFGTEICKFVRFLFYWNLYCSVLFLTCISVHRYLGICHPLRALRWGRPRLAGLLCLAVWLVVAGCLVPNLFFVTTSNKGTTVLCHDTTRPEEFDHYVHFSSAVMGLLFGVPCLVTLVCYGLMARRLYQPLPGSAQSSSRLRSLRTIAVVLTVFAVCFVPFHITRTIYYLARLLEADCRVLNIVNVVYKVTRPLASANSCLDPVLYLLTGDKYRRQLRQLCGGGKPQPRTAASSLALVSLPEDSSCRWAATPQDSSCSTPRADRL
Method: as §1, §2

[5] = biological target: T4, r-P2Y6 (Rattus norvegicus, UniProt Q63371); assay: Calcium mobilization assay, r-P2Y6 transfected 1321N1 astrocytoma cells; type: cell-based
T4 construct: host or cells: human 1321N1 astrocytoma cells, stably transfected
T4 sequence (Q63371 whole entry): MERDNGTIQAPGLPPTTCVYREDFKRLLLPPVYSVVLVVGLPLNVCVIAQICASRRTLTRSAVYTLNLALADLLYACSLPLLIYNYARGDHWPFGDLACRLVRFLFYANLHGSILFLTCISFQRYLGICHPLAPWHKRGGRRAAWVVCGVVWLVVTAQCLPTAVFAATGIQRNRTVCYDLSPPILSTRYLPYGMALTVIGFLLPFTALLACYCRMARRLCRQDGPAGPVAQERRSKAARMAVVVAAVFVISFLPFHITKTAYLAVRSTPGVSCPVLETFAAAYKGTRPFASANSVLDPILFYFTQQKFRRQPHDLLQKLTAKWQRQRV
Method: as §1, §2

[6] = tested on: H-1321N1 Cell Line; assay: MTT assay, non-transfected 1321N1 astrocytoma cells; type: cell-based, human; conditions: at 50 µM; non-transfected astrocytoma 1321N1 cells; triplicate
Method: (§3) A 96-well plate was used to plate 20,000 human 1321N1 astrocytoma cells and allowed for incubation for 24 h at temp of 37°C in CO2 (5%) incubator. Next to this, the prepared culture media was changed to media which was free from FBS, the test compounds were added and the incubation process was repeated. After incubation of 24 h, the serum free media from the wells was discarded, and 100 μL of the reagent i.e., MTT reagent was pipetted. Plate was then additionally incubated at 37°C for 4 h. Utilizing a microplate reader, absorbance was determined at 570 nm and 630 nm for calculation of cell viability (FLUOstarOmega Microplate Reader-BMG LABTECH GmbH, Ortenberg, Germany) ([Sauer et al., 2009]).

[7] = tested on: HEK-293 Cell Line; assay: MTT assay, HEK-293; type: cell-based; conditions: at 50 µM; triplicate
[8] = tested on: HeLa Cell Line; assay: MTT assay, HeLa; type: cell-based; conditions: at 50 µM; triplicate
[9] = MTT assay, non-transfected 1321N1 astrocytoma cells; type: cell-based, human; conditions: human, non-transfected 1321N1 astrocytoma cells; at 50 µM; non-transfected astrocytoma 1321N1 cells; triplicate; read-out: H-1321N1 Cell Line (%cytotoxicity ±SEM)
Method: as §3

[10] = MTT assay, HEK-293; type: cell-based; conditions: human, HEK-293 cells; at 50 µM; triplicate; read-out: HEK-293 Cell Line (%cytotoxicity ±SEM)
[11] = MTT assay, HeLa; type: cell-based; conditions: human, HeLa cells; at 50 µM; triplicate; read-out: HeLa Cell Line (%cytotoxicity ±SEM)
[12] = tested on: hP2Y2; design: method as in Bano et al., 2021; conditions: Figure 1, reported antagonist; ref Bano et al., 2021; cited from earlier work

T1 sequence (P49652 whole entry): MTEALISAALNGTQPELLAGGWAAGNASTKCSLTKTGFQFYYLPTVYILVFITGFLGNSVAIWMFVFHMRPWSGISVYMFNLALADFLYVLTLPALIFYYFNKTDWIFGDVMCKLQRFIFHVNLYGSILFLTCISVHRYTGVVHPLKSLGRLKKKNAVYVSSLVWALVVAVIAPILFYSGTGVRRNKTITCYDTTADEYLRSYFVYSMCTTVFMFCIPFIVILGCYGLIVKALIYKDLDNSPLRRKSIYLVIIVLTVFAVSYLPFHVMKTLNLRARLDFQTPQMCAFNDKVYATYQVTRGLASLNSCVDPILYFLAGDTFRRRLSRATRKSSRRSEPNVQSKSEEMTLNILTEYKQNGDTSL

Molecule: CNc1nc(I)nc2c1ncn2C1CC(OP(=O)(O)O)C2(COP(=O)(O)O)CC12 (stereo not drawn) [MRS2500]
- Ki [1]: 0.78 nM

Molecule: 2-Amino-5-nitro-N-((4-nitrophenyl)sulfonyl)-1H-benzo [d]imidazole-1-carbox amide [1d]
- % Inhibition t-P2Y1 ([2]; final conc of 100 μM): 43%
- % Inhibition h-P2Y2 ([3]; final conc of 100 μM): 41%
- % Inhibition h-P2Y4 [4]: 48%
- r-P2Y6 % Inhibition ([5]; Supplementary Table 2): 39%
- % Inhibition r-P2Y6 ([5]; final conc of 100 μM, 100 μM of UDP): 39%
- H-1321N1 Cell Line (%cytotoxicity ±SEM) [6]: 15.9 ± 0.3%
- HEK-293 Cell Line (%cytotoxicity ±SEM) [7]: 20.3 ± 0.6%
- HeLa Cell Line (%cytotoxicity ±SEM) [8]: 28.3 ± 0.4%

Molecule: Cc1ccc(C(=O)Nc2ccc(S(=O)(=O)O)c3cc(S(=O)(=O)O)cc(S(=O)(=O)O)c23)cc1NC(=O)c1cccc(NC(=O)Nc2cccc(C(=O)Nc3cc(C(=O)Nc4ccc(S(=O)(=O)O)c5cc(S(=O)(=O)O)cc(S(=O)(=O)O)c45)ccc3C)c2)c1 [Suramin, reference compound]
- IC50 ([2]; Ca2+ mobilization inhibition, transfected 1321N1 cells, read-out: IC50 ± SEM t-P2Y1): 150 ± 10 nM
- IC50 ([3]; Ca2+ mobilization inhibition, transfected 1321N1 cells, read-out: IC50 ± SEM h-P2Y2): 3310 ± 80 nM
- cytotoxicity at 24 h, 50 µM [9]: 12.3 ± 0.2%
- cytotoxicity at 24 h, 50 µM [10]: 11.1 ± 0.2%
- cytotoxicity at 24 h, 50 µM [11]: 37.5 ± 0.2%
- IC50 [12]: 48000 nM

Source: article PMC10250618, “Synthesis, structure-activity relationships and biological evaluation of benzimidazole derived sulfonylurea analogues as a new class of antagonists of P2Y1 receptor” (Frontiers in Pharmacology, 2023)
